Source: ChEMBL document CHEMBL3120103, “CK2 inhibitor CX4945 induces sequential inactivation of proteins in the signaling pathways related with cell migration and suppresses metastasis of A549 human lung cancer cells” (Bioorg Med Chem Lett, 2013)
Activity calls are given as the source filed them. The rule behind the calls is not given here.

Legend:
NCI-H1299 [1] = assay: Antiinvasive activity against human H1299 cells after 3 hrs by Boyden chamber invasion assay; assay type: functional, cell-based
NCI-H1299 [2] = assay: Antimigratory activity against human H1299 cells after 24 hrs by wound-healing assay; assay type: functional, cell-based
A549 [3] = assay: Reduction in MMP9 expression in human A549 cells at 1 to 10 uM after 24 hrs by Western blot method; assay type: functional, cell-based
A549 [4] = assay: Reduction in MMP2 expression in human A549 cells at 1 to 10 uM after 24 hrs by Western blot method; assay type: functional, cell-based
A549 [5] = assay: Antiinvasive activity against human A549 cells after 3 hrs by Boyden chamber invasion assay; assay type: functional, cell-based
A549 [6] = assay: Antimigratory activity against human A549 cells after 24 hrs by wound-healing assay; assay type: functional, cell-based
A549 [7] = assay: Cytotoxicity against human A549 cells assessed as viable cells at 1 to 30 uM after 24 hrs by LDH assay; assay type: cell-based; settings: a549, 24 h
[8] = Cytotoxicity against human A549 cells assessed as viable cells at 1 to 30 uM after 24 hrs by CCK8 assay; assay type: cell-based; settings: read-out: Activity
[9] = Cytotoxicity against human A549 cells assessed as viable cells at 1 to 30 uM after 3 hrs by CCK8 assay; assay type: cell-based; settings: read-out: Activity

O=C(O)c1ccc2c(c1)nc(Nc1cccc(Cl)c1)c1ccncc12 [SILMITASERTIB]
Activity (NCI-H1299 [1]): Dose-dependent effect | Activity (NCI-H1299 [2]): Dose-dependent effect | Activity (A549 [3]): inactive | Activity (A549 [4]): inactive | Activity (A549 [5]): Dose-dependent effect | Activity (A549 [6]): Dose-dependent effect | Activity (A549 [7]): Non-toxic | viability at 24 h, up to 30 µM [8]: > 70% | viability at 3 h, up to 30 µM [9]: > 70%
